Source: ChEMBL document CHEMBL1201862, “PubChem BioAssay data set” (2004)
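Tested at 5 concentrations; 48 h exposure; 96-well plates; endpoints linearly interpolated, else capped at highest concentration. GI50 is the concentration that inhibits growth by half.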 Active and inactive are the calls of the source. Cut-off read from the data, not from the text of the source: active = GI50 up to about 1.1 µM and inactive = higher.

Assays:
Experiment in all cases: DTP human tumour cell line panel, 48 h
786-0 = test system: 786-0
A498 = test system: A498
A549 = test system: A549
ACHN = test system: ACHN
BT-549 = test system: BT-549
CAKI-1 = test system: CAKI-1
CCRF-CEM = test system: CCRF-CEM
COLO 205 = test system: COLO 205
DU-145 = test system: DU-145
EKVX = test system: EKVX
HCC 2998 = test system: HCC 2998
HCT-116 = test system: HCT-116
HCT-15 = test system: HCT-15
HOP-62 = test system: HOP-62
HT-29 = test system: HT-29
Hs-578T = test system: Hs-578T
IGROV-1 = test system: IGROV-1
K562 = test system: K562
KM12 = test system: KM12
LOX IMVI = test system: LOX IMVI
M14 = test system: M14
MCF7 = test system: MCF7
MDA-MB-231 = test system: MDA-MB-231
MDA-MB-435 = test system: MDA-MB-435
MDA-N = test system: MDA-N
MOLT-4 = test system: MOLT-4
Malme-3M = test system: Malme-3M
NCI-H226 = test system: NCI-H226
NCI-H460 = test system: NCI-H460
NCI-H522 = test system: NCI-H522
NCI/ADR-RES = test system: NCI/ADR-RES
OVCAR-3 = test system: OVCAR-3
OVCAR-4 = test system: OVCAR-4
OVCAR-5 = test system: OVCAR-5
OVCAR-8 = test system: OVCAR-8
PC-3 = test system: PC-3
RPMI-8226 = test system: RPMI-8226
RXF 393 = test system: RXF 393
SF-268 = test system: SF-268
SF-295 = test system: SF-295
SK-MEL-28 = test system: SK-MEL-28
SK-MEL-2 = test system: SK-MEL-2
SK-MEL-5 = test system: SK-MEL-5
SK-OV-3 = test system: SK-OV-3
SN12C = test system: SN12C
SNB-19 = test system: SNB-19
SNB-75 = test system: SNB-75
SR = test system: SR
SW-620 = test system: SW-620
T47D = test system: T47D
TK-10 = test system: TK-10
U-251 = test system: U-251
UACC-257 = test system: UACC-257
UACC-62 = test system: UACC-62
UO-31 = test system: UO-31
HOP-92 = test system: HOP-92
NCI-H23 = test system: NCI-H23
SF-539 = test system: SF-539

Structure (SMILES): O=C1CCC(=O)N1n1c(Cc2ccccc2)n[nH]c1=O
- GI50 (786-0): > 100 µM (inactive)
- GI50 (A498): > 100 µM (inactive)
- GI50 (A549): > 100 µM (inactive)
- GI50 (ACHN): > 100 µM (inactive)
- GI50 (BT-549): > 100 µM (inactive)
- GI50 (CAKI-1): > 100 µM (inactive)
- GI50 (CCRF-CEM): > 100 µM (inactive)
- GI50 (COLO 205): > 100 µM (inactive)
- GI50 (DU-145): > 100 µM (inactive)
- GI50 (EKVX): > 100 µM (inactive)
- GI50 (HCC 2998): > 100 µM (inactive)
- GI50 (HCT-116): > 100 µM (inactive)
- GI50 (HCT-15): > 100 µM
- GI50 (HOP-62): > 100 µM (inactive)
- GI50 (HT-29): > 100 µM (inactive)
- GI50 (Hs-578T): > 100 µM (inactive)
- GI50 (IGROV-1): > 100 µM (inactive)
- GI50 (K562): > 100 µM (inactive)
- GI50 (KM12): 7.29 µM (inactive)
- GI50 (LOX IMVI): > 100 µM (inactive)
- GI50 (M14): > 100 µM (inactive)
- GI50 (MCF7): > 100 µM (inactive)
- GI50 (MDA-MB-231): > 100 µM (inactive)
- GI50 (MDA-MB-435): > 100 µM (inactive)
- GI50 (MDA-N): > 100 µM (inactive)
- GI50 (MOLT-4): > 100 µM (inactive)
- GI50 (Malme-3M): > 100 µM (inactive)
- GI50 (NCI-H226): > 100 µM (inactive)
- GI50 (NCI-H460): > 100 µM (inactive)
- GI50 (NCI-H522): > 100 µM (inactive)
- GI50 (NCI/ADR-RES): > 100 µM (inactive)
- GI50 (OVCAR-3): > 100 µM (inactive)
- GI50 (OVCAR-4): > 100 µM (inactive)
- GI50 (OVCAR-5): > 100 µM (inactive)
- GI50 (OVCAR-8): > 100 µM (inactive)
- GI50 (PC-3): > 100 µM (inactive)
- GI50 (RPMI-8226): > 100 µM (inactive)
- GI50 (RXF 393): > 100 µM (inactive)
- GI50 (SF-268): > 100 µM (inactive)
- GI50 (SF-295): > 100 µM (inactive)
- GI50 (SK-MEL-28): > 100 µM (inactive)
- GI50 (SK-MEL-2): > 100 µM (inactive)
- GI50 (SK-MEL-5): > 100 µM (inactive)
- GI50 (SK-OV-3): > 100 µM (inactive)
- GI50 (SN12C): > 100 µM (inactive)
- GI50 (SNB-19): > 100 µM (inactive)
- GI50 (SNB-75): 5.26 µM (inactive)
- GI50 (SR): > 100 µM (inactive)
- GI50 (SW-620): > 100 µM (inactive)
- GI50 (T47D): > 100 µM (inactive)
- GI50 (TK-10): > 100 µM (inactive)
- GI50 (U-251): > 100 µM (inactive)
- GI50 (UACC-257): > 100 µM (inactive)
- GI50 (UACC-62): > 100 µM (inactive)
- GI50 (UO-31): > 100 µM (inactive)

Structure (SMILES): O=[N+]([O-])c1ccc(N2N=C(c3c(O)ccc4ccccc34)CC2c2ccc(Cl)cc2)c([N+](=O)[O-])c1 (stereo not given)
- GI50 (786-0): 27.9 µM (inactive)
- GI50 (A498): 22.6 µM (inactive)
- GI50 (A549): 15.1 µM (inactive)
- GI50 (ACHN): 27.4 µM (inactive)
- GI50 (BT-549): 32.5 µM (inactive)
- GI50 (CAKI-1): 28.7 µM (inactive)
- GI50 (CCRF-CEM): 11.1 µM (inactive)
- GI50 (COLO 205): 16.1 µM (inactive)
- GI50 (DU-145): 19.5 µM (inactive)
- GI50 (HCC 2998): 28.6 µM (inactive)
- GI50 (HCT-116): 15.3 µM (inactive)
- GI50 (HCT-15): 14 µM
- GI50 (HOP-62): 24.4 µM (inactive)
- GI50 (HOP-92): 26 µM (inactive)
- GI50 (HT-29): 20.1 µM (inactive)
- GI50 (Hs-578T): 27.4 µM (inactive)
- GI50 (IGROV-1): 22.1 µM (inactive)
- GI50 (K562): 5.28 µM (inactive)
- GI50 (KM12): 5.65 µM (inactive)
- GI50 (M14): 18.5 µM (inactive)
- GI50 (MCF7): 26.4 µM (inactive)
- GI50 (MDA-MB-231): 23.8 µM (inactive)
- GI50 (MDA-MB-435): 25.6 µM (inactive)
- GI50 (MDA-N): 33.1 µM (inactive)
- GI50 (MOLT-4): 10.1 µM (inactive)
- GI50 (Malme-3M): 15.2 µM (inactive)
- GI50 (NCI-H226): 20.9 µM (inactive)
- GI50 (NCI-H23): 19.1 µM (inactive)
- GI50 (NCI-H460): 29.9 µM (inactive)
- GI50 (NCI-H522): 31.5 µM (inactive)
- GI50 (NCI/ADR-RES): 16.4 µM (inactive)
- GI50 (OVCAR-3): 29.9 µM (inactive)
- GI50 (OVCAR-4): 64.9 µM (inactive)
- GI50 (OVCAR-5): 17.1 µM (inactive)
- GI50 (OVCAR-8): 21.7 µM (inactive)
- GI50 (PC-3): 6.4 µM (inactive)
- GI50 (RPMI-8226): 15.3 µM (inactive)
- GI50 (RXF 393): 20 µM (inactive)
- GI50 (SF-268): 29.5 µM (inactive)
- GI50 (SF-295): 4.59 µM (inactive)
- GI50 (SF-539): 30.1 µM (inactive)
- GI50 (SK-MEL-28): 46.9 µM (inactive)
- GI50 (SK-MEL-2): 17.8 µM (inactive)
- GI50 (SK-MEL-5): 20.4 µM (inactive)
- GI50 (SK-OV-3): 27.5 µM (inactive)
- GI50 (SN12C): 33.4 µM (inactive)
- GI50 (SNB-75): 12.2 µM (inactive)
- GI50 (SR): 6.97 µM (inactive)
- GI50 (SW-620): 25.3 µM (inactive)
- GI50 (T47D): 32.6 µM (inactive)
- GI50 (TK-10): 41 µM (inactive)
- GI50 (U-251): 30 µM (inactive)
- GI50 (UACC-257): 37.1 µM (inactive)
- GI50 (UACC-62): 7.13 µM (inactive)
- GI50 (UO-31): 17.9 µM (inactive)
